These results are taken from paper PMC2375326, “In vitro evaluation of amino acid prodrugs of novel antitumour 2-(4-amino-3-methylphenyl)benzothiazoles” (British Journal of Cancer, 2002).

One may read the GI50 as the concentration at which growth is held to half of that of the control.

One data set concerns LOX IMVI. Kind of data set: NCI in vitro cytotoxicity assay (SRB), LOX IMVI. The data set is classed as cell-based. The following applies: Homo sapiens, 48 h exposure, sulforhodamine B assay, mean graph, read-out: Log10 GI50 (LOX IMVI) (converted). The procedure:
(§1) Cell culture and drug application procedures have been described previously ([Boyd and Paull, 1995]). Briefly, cell lines were inoculated into a series of 96-well microtiter plates, with varied seeding densities depending on growth characteristics of each cell line. Following a 24 h drug free incubation, test agents were added at five 10-fold dilutions with a maximum concentration of 100 μM. Cellular protein levels were determined after 48 h drug exposure by sulphorhodamine B colorimetry.
For orientation: In SRB staining, fixed cells bind dye roughly in proportion to their protein.

The test system of data set [1] is CYP1A1 activity (EROD) in MCF-7 cells. The experiment in a line: Induction of EROD activity in lysates of treated MCF-7 cells. The data set is classed as cell-based, human. The settings on record: lysates of MCF-7 cells treated with 1 μM, 24 h; negligible activity in untreated lysates; mean of three, s.d. <10%. How it is done:
A sensitive and rapid fluorometric assay was used to measure EROD activity ([Burke et al, 1994]). Incubation mixtures (total 1 ml) consisted of 100 mM Tris-HCl (pH 7.4), 50 μM MgCl2, 100 μM 7-ethoxyresorufin and 100 μl cell homogenate. Homogenates were prepared following treatment of cells for 24 h with compounds 1, 2, 2a, 2b, 3, 3a, 3b, 4, 4a and 4b or vehicle alone and protein content determined (n=3). Thus induction of ethoxyresorufin O-deethylation by agents under study, catalysed by CYP1A1 activity, could be determined. Alternatively, microsomes expressing recombinant CYP1A1 (0.1 mg ml^−1) provided the enzyme source for EROD catalysis, in the presence or absence of drug, in order to determine inhibition of CYP1A1 activity by compounds 1, 2, 2a, 2b, 3, 3a, 3b, 4, 4a and 4b. Incubation mixtures were pre-incubated for 5 min at 37°C before initiation of reaction by addition of NADPH (500 μM). Following further incubations at 37°C (30 min for cell homogenates, 15 min for CYP1A1 microsomes), reactions were terminated by addition of 3 ml ice-cold acetonitrile. Reaction mixtures were centrifuged (1400 r.p.m., 10 min) before analyses of supernatants. Fluorescence was read on a Perkin-Elmer LS-5 luminescence spectrometer (excitation, 530 nm; emission 585 nm). Estimation of resorufin reaction product (pmoles mg^−1 protein, pmoles 100 μg^−1 microsomes), as a measure of CYP1A1 activity, was determined following performance of a resorufin standard curve.

In the next data set the test system is A498. Kind of data set: NCI in vitro cytotoxicity assay (SRB), A498. In kind it is cell-based. The following applies: Homo sapiens, 48 h exposure, sulforhodamine B assay, mean graph, read-out: Log10 GI50 (A498) (converted). The procedure:
as §1

The subject of another data set is HT29. Kind of data set: NCI in vitro cytotoxicity assay (SRB), HT29. The data set is classed as cell-based. The settings on record: Homo sapiens, HT-29; 48 h exposure, sulforhodamine B assay, mean graph; read-out: Log10 GI50 (HT29) (converted). The procedure: as §1
A further data set concerns NCI-460. The experiment in a line: NCI in vitro cytotoxicity assay (SRB), NCI-460. The data set is classed as cell-based. The following applies: Homo sapiens, 48 h exposure, sulforhodamine B assay, mean graph, read-out: Log10 GI50 (NCI-460) (converted). The procedure:
as §1

The subject of a further data set is RXF 393. The experiment in a line: NCI in vitro cytotoxicity assay (SRB), RXF 393. The data set is classed as cell-based. The following applies: Homo sapiens, 48 h exposure, sulforhodamine B assay, mean graph, read-out: Log10 GI50 (RXF 393) (converted). The procedure: as §1
For the next data set, the system named is UACC-257. Kind of data set: NCI in vitro cytotoxicity assay (SRB), UACC-257. In kind it is cell-based. The following applies: Homo sapiens, 48 h exposure, sulforhodamine B assay, mean graph, read-out: Log10 GI50 (UACC-257) (converted). The procedure:
as §1

The test system of the next data set is HOP-92. The experiment in a line: NCI in vitro cytotoxicity assay (SRB), HOP-92. The data set is classed as cell-based. The settings on record: Homo sapiens, 48 h exposure, sulforhodamine B assay, mean graph, read-out: Log10 GI50 (HOP-92) (converted). The procedure: as §1
For a further data set, the system named is K-562. Kind of data set: NCI in vitro cytotoxicity assay (SRB), K-562. In kind it is cell-based. The settings on record: Homo sapiens, K562; 48 h exposure, sulforhodamine B assay, mean graph; read-out: Log10 GI50 (K-562) (converted). The procedure:
as §1

The subject of the next data set is U251. Kind of data set: NCI in vitro cytotoxicity assay (SRB), U251. The following applies: Homo sapiens, U-251; 48 h exposure, sulforhodamine B assay, mean graph; read-out: Log10 GI50 (U251) (converted). The data set is classed as cell-based. How it is done:
as §1

A further data set concerns T-47D. Kind of data set: NCI in vitro cytotoxicity assay (SRB), T-47D. In kind it is cell-based. The settings on record: Homo sapiens, T47D; 48 h exposure, sulforhodamine B assay, mean graph; read-out: Log10 GI50 (T-47D) (converted). The procedure:
as §1

Another data set has as its system OVCAR-3. Kind of data set: NCI in vitro cytotoxicity assay (SRB), OVCAR-3. The settings on record: Homo sapiens, 48 h exposure, sulforhodamine B assay, mean graph, read-out: Log10 GI50 (OVCAR-3) (converted). In kind it is cell-based. How it is done:
as §1

In another data set the test system is PC-3. Kind of data set: NCI in vitro cytotoxicity assay (SRB), PC-3. The settings on record: Homo sapiens, 48 h exposure, sulforhodamine B assay, mean graph, read-out: Log10 GI50 (PC-3) (converted). The data set is classed as cell-based. The procedure: as §1
For a further data set, the system named is SR. The experiment in a line: NCI in vitro cytotoxicity assay (SRB), SR. The following applies: Homo sapiens, 48 h exposure, sulforhodamine B assay, mean graph, read-out: Log10 GI50 (SR) (converted). In kind it is cell-based. How it is done:
as §1

In the next data set the test system is NCIH23. Kind of data set: NCI in vitro cytotoxicity assay (SRB), NCIH23. The data set is classed as cell-based. The settings on record: Homo sapiens, NCI-H23; 48 h exposure, sulforhodamine B assay, mean graph; read-out: Log10 GI50 (NCIH23) (converted). The procedure:
as §1

The subject of another data set is UACC-62. Kind of data set: NCI in vitro cytotoxicity assay (SRB), UACC-62. In kind it is cell-based. The following applies: Homo sapiens, 48 h exposure, sulforhodamine B assay, mean graph, read-out: Log10 GI50 (UACC-62) (converted). The procedure:
as §1

A further data set deals with SW-620. Kind of data set: NCI in vitro cytotoxicity assay (SRB), SW-620. The following applies: Homo sapiens, 48 h exposure, sulforhodamine B assay, mean graph, read-out: Log10 GI50 (SW-620) (converted). In kind it is cell-based. How it is done: as §1
The subject of the next data set is M14. Kind of data set: NCI in vitro cytotoxicity assay (SRB), M14. The following applies: Homo sapiens, 48 h exposure, sulforhodamine B assay, mean graph, read-out: Log10 GI50 (M14) (converted). In kind it is cell-based. How it is done: as §1
The subject of a further data set is MOLT-4. The experiment in a line: NCI in vitro cytotoxicity assay (SRB), MOLT-4. In kind it is cell-based. The following applies: Homo sapiens, 48 h exposure, sulforhodamine B assay, mean graph, read-out: Log10 GI50 (MOLT-4) (converted). How it is done: as §1
The test system of data set [2] is NCI in vitro panel of human derived cancer cell lines. The experiment in a line: NCI in vitro cytotoxicity assay (SRB), whole panel mean graph. In kind it is cell-based. The settings on record: average GI50 over the panel, 48 h exposure, sulforhodamine B assay, read-out: Log10 GI50 (MG_MID) (converted). The procedure: as §1
In the next data set the test system is OVCAR-8. The experiment in a line: NCI in vitro cytotoxicity assay (SRB), OVCAR-8. The data set is classed as cell-based. The settings on record: Homo sapiens, 48 h exposure, sulforhodamine B assay, mean graph, read-out: Log10 GI50 (OVCAR-8) (converted). How it is done:
as §1

Some results are limits rather than exact numbers.

On to `Cc1cc(-c2nc3cc(F)ccc3s2)ccc1N` [Compound 2, 2-(4-Amino-3-methylphenyl)-5-fluorobenzothiazole], for which the GI50 in the data set on LOX IMVI was greater than 100000 nM; with A498, 2.82 µM; with HT29 it was 63.1 µM; with NCI-460, less than 10 nM; with RXF 393, 32.4 µM; in the data set on UACC-257, 77.6 µM. Besides, the GI50 in the data set with HOP-92 is 36.3 µM; in the data set on K-562, greater than 100000 nM; with U251 it was 41.7 µM; with T-47D, less than 10 nM; with OVCAR-3 it was 24.5 µM; with PC-3, 23.4 µM. For the same compound, the GI50 is less than 10 nM in the data set with SR; 51.3 µM in the data set on NCIH23; 57.5 µM in the data set with UACC-62; greater than 100 µM with SW-620; 33.9 µM with M14; greater than 100000 nM with MOLT-4. Also, the results for the 50% growth inhibitory concentration (GI50) (in [2]; in the data set with OVCAR-8) were 11 µM and greater than 100 µM, respectively. For the same compound, the “Induction EROD activity” value in data set [1] is on record as 36.64 nM resorufin mg^-1 protein.

Turning to `Cc1cc(-c2nc3cc(F)ccc3s2)ccc1NC(=O)[C@@H](N)CCCCN` [Compound 2b], the GI50 was 2000 nM in the data set with LOX IMVI; 12.6 µM in the data set on A498; 3.24 µM in the data set with HT29; 70.8 nM in the data set on NCI-460; 7.24 µM in the data set with RXF 393; 15.8 µM with UACC-257. The GI50 was 15.1 µM in the data set with HOP-92; 2290 nM in the data set with K-562; 2.14 µM in the data set with U251; less than 10 nM with T-47D; 10.7 µM in the data set with OVCAR-3; 12.6 µM in the data set on PC-3. Moreover, the GI50 is 562 nM in the data set with SR; 6.17 µM in the data set with NCIH23; 14.1 µM in the data set with UACC-62; 3.63 µM in the data set on SW-620; 2.14 µM with M14; 1000 nM with MOLT-4. In addition, the figures for the GI50 (in data set [2]; with OVCAR-8) were 2.51 µM and 11.2 µM, respectively. Besides, in [1], the “Induction EROD activity” value is 35.56 nM resorufin mg^-1 protein.
